As a reminder, the zone of inhibition is the size of the clear area around the sample on an inoculated plate.

SMILES strings stand for the structures.

The values below come from US6552214B1, “Antimicrobial compound” (General Electric Company, priority 2000, dated 2003).

Data set [1] is described as follows: Dioxin (2,8 DCDD) formation during GC-MS analysis. It counts as physicochemical. The conditions noted are these: injection of a 1000 ppm solution at 270° C. (518° F.). As to the method: Dioxin formation was compared between modified and unmodified IRGASAN® bacteriostat samples. It was determined that 2,8 DCDD was produced during analysis of unmodified IRGASAN® bacteriostat by gas-chromatography-mass spectroscopy (GC-MS), presumably during injection of the material at 270° C. (518° F.).
The structure of IRGASAN® bacteriostat was modified by derivatization with BSTFA. A 0.1 ml volume of BSTFA (Supelco inc.) was added to 1.0 ml of a 1000 ppm IRGASAN® solution. Dioxin levels were undetectable upon analysis of the modified IRGASAN® solution by GC-MS.

A further data set relates to Pseudomonas aeruginosa. The data set is described as follows: Kirby-Bauer type assay, zone of inhibition. The class given is cell-based. The following applies: P. aeruginosa, 24 h incubation. As to the method:
(§1) Antimicrobial activity of the modified IRGASAN® bacteriostat was compared to that of the unmodified material in a Kirby-Bauer type assay. Three solutions of IRGASAN® bacteriostat and three solutions of modified IRGASAN® bacteriostat (3, 30 and 3000 ppm) were prepared and soaked into Whatman filter paper disks ˜6 mm in diameter and allowed to dry. The disks were placed onto the surface of nutrient agar plates that had been inoculated with 1×10^6 cells of either E. coli or Pseudomonas aeruginosa. The ability of the compounds to inhibit bacterial growth was determined by measuring the diameter of the zone of inhibition surrounding the filter paper disks after 24 h of incubation. The results (TABLE 1) indicate that there is no difference in activity between the modified and unmodified IRGASAN® bacteriostat compound.

The test system of the next data set is E. coli. The data set is described as follows: Kirby-Bauer type assay, zone of inhibition. It counts as cell-based. The following applies: 24 h incubation. As to the method:
as §1

For data set [2] the following is noted: background statement; cited from earlier work.
Where [3] appears, read: 3 ppm solution soaked into filter paper disk.
[4] abbreviates: 30 ppm solution soaked into filter paper disk.
The mark [5] stands for this setting: 3000 ppm solution soaked into filter paper disk.

As to `C[Si](C)(C)Oc1cc(Cl)ccc1Oc1ccc(Cl)cc1Cl` [Modified, 2,4,4′-trichloro-2′-trimethylsilyloxy diphenyl ether], the “production of DCDD (dioxin level)” value in data set [1] was “undetectable”. Moreover, the zone of inhibition at 3 ppm in the data set on Pseudomonas aeruginosa (Pseudomonas aeruginosa, 3 ppm solution soaked into filter paper disk) was found to be 0 mm; in the data set with E. coli (Escherichia coli, 3 ppm solution soaked into filter paper disk), 1 mm. Moreover, the zone of inhibition at 30 ppm is 0 mm in the data set with Pseudomonas aeruginosa (Pseudomonas aeruginosa, 30 ppm solution soaked into filter paper disk) and 4 mm with E. coli (Escherichia coli, 30 ppm solution soaked into filter paper disk). The zone of inhibition at 3000 ppm with Pseudomonas aeruginosa (Pseudomonas aeruginosa, 3000 ppm solution soaked into filter paper disk) came out at 0 mm; in the data set with E. coli (Escherichia coli, 3000 ppm solution soaked into filter paper disk) it was 12 mm.

On to `Oc1cc(Cl)ccc1Oc1ccc(Cl)cc1Cl` [Unmodified, 2,4,4′-dichloro-2′-hydroxydiphenyl ether], for which, in data set [1], the “production of DCDD (dioxin level)” value was “approximately 46 ppm”. The “Zone of Inhibition” value in the data set with Pseudomonas aeruginosa (setting [3]) is reported as 0 mm; in the data set with Pseudomonas aeruginosa (setting [4]) it was 0 mm; in the data set on Pseudomonas aeruginosa (setting [5]) it was 0 mm; with E. coli (setting [3]), 1 mm; with E. coli (setting [4]), 4 mm; in the data set with E. coli (setting [5]) it was 12 mm. For the same compound, the “temperature above which the ether converts to chlorinated dioxin (DCDD)” value in data set [2] is “above 200 °C”.
